Calls of active or inactive are those of the source. No cut-off for these calls is given here.
How the values were obtained:
[1] = system: Drosophila; experiment: Innate immunity-regulating activity in Drosophila Dpt-lacZ larvae assessed as suppression of immune response by measuring DAP-type peptidoglycan-mediated Dpt-lacZ activation at 10 ug/ml incubated at 25 degC for 12 hrs by beta-galactosidase reporter gene assay; assay type: functional
[2] = system: Drosophila; experiment: Cytotoxicity against Drosophila S2 assessed as reduction in cell viability at 0.1 to 100 ug/ml by WST8 dye based assay
[3] = system: Drosophila; experiment: Innate immunity-regulating activity in Drosophila Dpt-lacZ larvae assessed as suppression of immune response by measuring DAP-type peptidoglycan-mediated Dpt-lacZ activation at 0.1 to 100 ug/ml incubated at 25 degC for 12 hrs by beta-galactosidase reporter gene assay; assay type: functional, organism-based
[4] = system: Drosophila; experiment: Innate immunity-regulating activity in Drosophila Dpt-lacZ larvae assessed as suppression of immune response by measuring DAP-type peptidoglycan-mediated Dpt-lacZ activation at 1 ug/ml incubated at 25 degC for 12 hrs by beta-galactosidase reporter gene assay; assay type: functional, organism-based

CC[C@@H](C)[C@@H]1NC(=O)[C@H](Cc2ccc(OC)cc2)N(C)C(=O)[C@@H]2CCCN2C(=O)[C@@H]2CCCN2C(=O)[C@@H]([C@H](C)CC)NC(=O)[C@@H](NC(C)=O)[C@@H](C)OC1=O
inhibition at 10 µg/mL [1]: 37% | Activity [2]: Non-toxic | inhibition [3]: Dose-dependent effect

CC[C@@H](C)[C@H]1NC(=O)[C@@H](NC(C)=O)[C@@H](C)OC(=O)[C@H](C(C)C)NC(=O)[C@H](Cc2ccccc2)N(C)C(=O)[C@@H]2CCCN2C(=O)[C@@H]2CCCN2C1=O
inhibition [1]: inactive

CC[C@@H](C)[C@H]1NC(=O)[C@@H](NC(C)=O)[C@@H](C)OC(=O)[C@H]([C@@H](C)CC)NC(=O)[C@H](Cc2ccc(OC)cc2)N(C)C(=O)[C@@H]2CCCN2C(=O)[C@@H]2CCCN2C1=O
inhibition [1]: inactive

CCC[C@H]1NC(=O)[C@@H](NC(C)=O)[C@@H](C)OC(=O)[C@H](C(C)C)NC(=O)[C@H](Cc2ccc(OC)cc2)N(C)C(=O)[C@@H]2CCCN2C(=O)[C@@H]2CCCN2C1=O
inhibition [1]: inactive

COc1cc(O)c2c(c1)/C=C/C[C@H](O)[C@H](O)[C@@H](O)/C=C/C[C@H](C)OC2=O
inhibition [4]: Active

CC[C@@H](C)[C@H]1NC(=O)[C@@H](NC(C)=O)[C@@H](C)OC(=O)[C@H](C(C)C)NC(=O)[C@H](Cc2ccccc2)NC(=O)[C@@H]2CCCN2C(=O)[C@@H]2CCCN2C1=O
inhibition [1]: inactive

CC[C@@H](C)[C@H]1NC(=O)[C@@H](NC(C)=O)[C@@H](C)OC(=O)[C@H](C(C)C)NC(=O)[C@H](Cc2ccc(OC)cc2)N(C)C(=O)[C@@H]2CCCN2C(=O)[C@@H]2CCCN2C1=O
inhibition [1]: inactive

Reference: ChEMBL document CHEMBL3593213, “Isolation of a Cyclic Depsipetide, Aspergillicin F, and Synthesis of Aspergillicins with Innate Immune-Modulating Activity” (J Nat Prod, 2015)
